# Patent publication US11377442B2, “Small molecule agonists and antagonists of NR2F6 activity” (ZANDER THERAPEUTICS, INC., priority 2016, dated 2022)
# Like-named read-outs stand apart in the source and are kept apart here.
# Assays:
# Type in all cases: cell-based
# NR2F6 = target: T1, NR2F6 (Homo sapiens, UniProt P10588); test: NR2F6 agonist screening, Firefly signal cmpd/DMSO
# T1 construct: expressed in transfected cells; also transient transfection
# T1 sequence (P10588 1-404): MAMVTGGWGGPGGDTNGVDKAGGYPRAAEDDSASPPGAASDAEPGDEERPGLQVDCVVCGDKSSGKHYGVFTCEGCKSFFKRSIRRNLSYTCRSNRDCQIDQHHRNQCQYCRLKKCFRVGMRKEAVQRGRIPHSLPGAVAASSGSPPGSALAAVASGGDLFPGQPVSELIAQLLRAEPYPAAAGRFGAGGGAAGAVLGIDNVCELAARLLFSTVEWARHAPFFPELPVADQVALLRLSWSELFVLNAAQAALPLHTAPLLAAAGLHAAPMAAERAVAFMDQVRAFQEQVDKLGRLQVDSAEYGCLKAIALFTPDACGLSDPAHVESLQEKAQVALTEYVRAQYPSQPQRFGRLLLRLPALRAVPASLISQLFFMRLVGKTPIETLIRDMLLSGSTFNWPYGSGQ
# Renilla = Renilla signal in NR2F6 agonist screening, cmpd/DMSO; conditions: Renilla, F4
# HEK293 pGL4 = test: Firefly_pGL signal, cmpd/DMSO (pGL4 control cells); conditions: Homo sapiens
# NR2F6 LBD = target: T2, NR2F6 LBD (Homo sapiens, UniProt P10588); test: NR2F6 LBD transient transfection; conditions: LBD
# T2 construct: expressed in transfected cells
# T2 sequence (P10588 165-393 limits assumed): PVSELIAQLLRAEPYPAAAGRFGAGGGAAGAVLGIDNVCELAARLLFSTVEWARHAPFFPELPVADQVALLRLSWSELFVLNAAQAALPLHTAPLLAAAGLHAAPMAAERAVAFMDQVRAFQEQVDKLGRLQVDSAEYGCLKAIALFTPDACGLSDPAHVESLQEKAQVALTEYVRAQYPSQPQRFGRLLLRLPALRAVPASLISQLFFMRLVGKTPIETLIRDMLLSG
# Summary of the method: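 LBD-transfected cells treated at 40, 10, 2 and 0.5 μM (4 replicates); cytotoxicity measured in parallel, normalized to DMSO (0%) and zero signal (100%). Higher concentrations excluded where signal loss reflected toxicity.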
# [1] = read-out: Renilla, F4, cmpd/DMSO (mean)
# [2] = 1% FBS, read-out: Renilla, F4, 1% FBS, cmpd/DMSO (mean)
# [3] = 10% FBS, read-out: Renilla, F4, 10% FBS, cmpd/DMSO (mean)
# [4] = HEK293, 0.5 uM, pGL4, read-out: Firefly pGL4, cmpd/DMSO (mean)
# [5] = HEK293, 2 uM, pGL4, read-out: Firefly pGL4, cmpd/DMSO (mean)
# [6] = HEK293, 10 uM, pGL4, read-out: Firefly pGL4, cmpd/DMSO (mean)
# [7] = HEK293, 40 uM, pGL4, read-out: Firefly pGL4, cmpd/DMSO (mean)
# [8] = HEK293, pGL4, 1% FBS, 0.5 uM, read-out: Firefly, pGL4, 1% FBS, cmpd/DMSO (mean)
# [9] = HEK293, pGL4, 1% FBS, 2 uM, read-out: Firefly, pGL4, 1% FBS, cmpd/DMSO (mean)
# [10] = HEK293, pGL4, 1% FBS, 10 uM, read-out: Firefly, pGL4, 1% FBS, cmpd/DMSO (mean)
# [11] = HEK293, pGL4, 1% FBS, 40 uM, read-out: Firefly, pGL4, 1% FBS, cmpd/DMSO (mean)
# [12] = HEK293, pGL4, 10% FBS, 0.5 uM, read-out: Firefly, pGL4, 10% FBS, cmpd/DMSO (mean)
# [13] = HEK293, pGL4, 10% FBS, 2 uM, read-out: Firefly, pGL4, 10% FBS, cmpd/DMSO (mean)
# [14] = HEK293, pGL4, 10% FBS, 10 uM, read-out: Firefly, pGL4, 10% FBS, cmpd/DMSO (mean)
# [15] = HEK293, pGL4, 10% FBS, 40 uM, read-out: Firefly, pGL4, 10% FBS, cmpd/DMSO (mean)
compound,measurement,setting,value
CCCN[C@H]1CS(=O)(=O)C[C@@H]1S(=O)(=O)c1ccc(Cl)cc1 [Compound D117],"Firefly F4, cmpd/DMSO (mean)",NR2F6; 0.5 uM,1.1
same,"Firefly F4, cmpd/DMSO (mean)",NR2F6; 2 uM,2.2
same,"Firefly F4, cmpd/DMSO (mean)",NR2F6; 10 uM,4.7
same,"Firefly F4, cmpd/DMSO (mean)",NR2F6; 40 uM,0.5
same,"F4, Firefly/Renilla for S/B(F4) > 3","NR2F6; 1% FBS, 10 uM",3.4
same,"Firefly, F4/pGL4 for S/B(F4) > 3","NR2F6; 1% FBS, 10 uM",3.2
same,"F4, Firefly/Renilla for S/B(F4) > 3","NR2F6; 10% FBS, 10 uM",2.3
same,"Firefly, F4/pGL4 for S/B(F4) > 3","NR2F6; 10% FBS, 10 uM",1.9
same,"Firefly, F4, 1% FBS, cmpd/DMSO (mean)","NR2F6; 1% FBS, 0.5 uM",0.9
same,"Firefly, F4, 1% FBS, cmpd/DMSO (mean)","NR2F6; 1% FBS, 2 uM",2.1
same,"Firefly, F4, 1% FBS, cmpd/DMSO (mean)","NR2F6; 1% FBS, 10 uM",5.9
same,"Firefly, F4, 1% FBS, cmpd/DMSO (mean)","NR2F6; 1% FBS, 40 uM",0.1
same,"Firefly, F4, 10% FBS, cmpd/DMSO (mean)","NR2F6; 10% FBS, 0.5 uM",0.9
same,"Firefly, F4, 10% FBS, cmpd/DMSO (mean)","NR2F6; 10% FBS, 2 uM",1.2
same,"Firefly, F4, 10% FBS, cmpd/DMSO (mean)","NR2F6; 10% FBS, 10 uM",4.1
same,"Firefly, F4, 10% FBS, cmpd/DMSO (mean)","NR2F6; 10% FBS, 40 uM",2.9
same,fold induction at 0.5 µM,Renilla; [1],1
same,fold induction at 2 µM,Renilla; [1],1.3
same,fold induction at 10 µM,Renilla; [1],1.7
same,fold induction at 40 µM,Renilla; [1],0.4
same,fold induction at 0.5 µM,Renilla; [2],1
same,fold induction at 2 µM,Renilla; [2],1.4
same,fold induction at 10 µM,Renilla; [2],1.7
same,fold induction at 40 µM,Renilla; [2],0.8
same,fold induction at 0.5 µM,Renilla; [3],1
same,fold induction at 2 µM,Renilla; [3],1
same,fold induction at 10 µM,Renilla; [3],1.8
same,fold induction at 40 µM,Renilla; [3],2.4
same,fold induction at 0.5 µM,HEK293 pGL4; [4],1
same,fold induction at 2 µM,HEK293 pGL4; [5],1.4
same,fold induction at 10 µM,HEK293 pGL4; [6],4.6
same,fold induction at 40 µM,HEK293 pGL4; [7],0.3
same,fold induction at 0.5 µM,HEK293 pGL4; [8],1
same,fold induction at 2 µM,HEK293 pGL4; [9],1.4
same,fold induction at 10 µM,HEK293 pGL4; [10],1.9
same,fold induction at 40 µM,HEK293 pGL4; [11],0.6
same,fold induction at 0.5 µM,HEK293 pGL4; [12],1.1
same,fold induction at 2 µM,HEK293 pGL4; [13],1.6
same,fold induction at 10 µM,HEK293 pGL4; [14],2.2
same,fold induction at 40 µM,HEK293 pGL4; [15],1.2
same,"Firefly LBD, cmpd/DMSO (mean)",NR2F6 LBD; 0.5 uM,1.1
same,"Firefly LBD, cmpd/DMSO (mean)",NR2F6 LBD; 2 uM,2.1
same,"Firefly LBD, cmpd/DMSO (mean)",NR2F6 LBD; 10 uM,4.2
same,"Firefly LBD, cmpd/DMSO (mean)",NR2F6 LBD; 40 uM,0.2
CCCCN[C@H]1CS(=O)(=O)C[C@@H]1S(=O)(=O)c1ccc(Cl)cc1 [Compound D119],"Firefly F4, cmpd/DMSO (mean)",NR2F6; 0.5 uM,0.9
same,"Firefly F4, cmpd/DMSO (mean)",NR2F6; 2 uM,2.0
same,"Firefly F4, cmpd/DMSO (mean)",NR2F6; 10 uM,5.3
same,"Firefly F4, cmpd/DMSO (mean)",NR2F6; 40 uM,0.6
same,"F4, Firefly/Renilla for S/B(F4) > 3","NR2F6; 1% FBS, 10 uM",2.5
same,"Firefly, F4/pGL4 for S/B(F4) > 3","NR2F6; 1% FBS, 10 uM",1.9
same,"F4, Firefly/Renilla for S/B(F4) > 3","NR2F6; 10% FBS, 10 uM",2.7
same,"Firefly, F4/pGL4 for S/B(F4) > 3","NR2F6; 10% FBS, 10 uM",3.3
same,"Firefly, F4, 1% FBS, cmpd/DMSO (mean)","NR2F6; 1% FBS, 0.5 uM",1.5
same,"Firefly, F4, 1% FBS, cmpd/DMSO (mean)","NR2F6; 1% FBS, 2 uM",1.8
same,"Firefly, F4, 1% FBS, cmpd/DMSO (mean)","NR2F6; 1% FBS, 10 uM",4.4
same,"Firefly, F4, 1% FBS, cmpd/DMSO (mean)","NR2F6; 1% FBS, 40 uM",0.2
same,"Firefly, F4, 10% FBS, cmpd/DMSO (mean)","NR2F6; 10% FBS, 0.5 uM",1.5
same,"Firefly, F4, 10% FBS, cmpd/DMSO (mean)","NR2F6; 10% FBS, 2 uM",1.1
same,"Firefly, F4, 10% FBS, cmpd/DMSO (mean)","NR2F6; 10% FBS, 10 uM",7.3
same,"Firefly, F4, 10% FBS, cmpd/DMSO (mean)","NR2F6; 10% FBS, 40 uM",1.6
same,fold induction at 0.5 µM,Renilla; [1],1.2
same,fold induction at 2 µM,Renilla; [1],1.2
same,fold induction at 10 µM,Renilla; [1],1.6
same,fold induction at 40 µM,Renilla; [1],0.2
same,fold induction at 0.5 µM,Renilla; [2],1.1
same,fold induction at 2 µM,Renilla; [2],1.1
same,fold induction at 10 µM,Renilla; [2],1.8
same,fold induction at 40 µM,Renilla; [2],0.4
same,fold induction at 0.5 µM,Renilla; [3],1.4
same,fold induction at 2 µM,Renilla; [3],1.5
same,fold induction at 10 µM,Renilla; [3],2.7
same,fold induction at 40 µM,Renilla; [3],1.3
same,fold induction at 0.5 µM,HEK293 pGL4; [4],1.1
same,fold induction at 2 µM,HEK293 pGL4; [5],1.5
same,fold induction at 10 µM,HEK293 pGL4; [6],3.9
same,fold induction at 40 µM,HEK293 pGL4; [7],0.6
same,fold induction at 0.5 µM,HEK293 pGL4; [8],1.2
same,fold induction at 2 µM,HEK293 pGL4; [9],1.4
same,fold induction at 10 µM,HEK293 pGL4; [10],2.4
same,fold induction at 40 µM,HEK293 pGL4; [11],0.7
same,fold induction at 0.5 µM,HEK293 pGL4; [12],1.1
same,fold induction at 2 µM,HEK293 pGL4; [13],1.2
same,fold induction at 10 µM,HEK293 pGL4; [14],2.2
same,fold induction at 40 µM,HEK293 pGL4; [15],0.5
same,"Firefly LBD, cmpd/DMSO (mean)",NR2F6 LBD; 0.5 uM,1.0
same,"Firefly LBD, cmpd/DMSO (mean)",NR2F6 LBD; 2 uM,1.5
same,"Firefly LBD, cmpd/DMSO (mean)",NR2F6 LBD; 10 uM,3.4
same,"Firefly LBD, cmpd/DMSO (mean)",NR2F6 LBD; 40 uM,0.5
